Measurements: patent US20170216252A1, “ANTI-BACTERIAL PYRUVATE KINASE MODULATOR COMPOUNDS, COMPOSITIONS, USES AND METHODS” (SIMON FRASER UNIVERSITY, priority 2014, published 2017)
In brackets after ≈: the same amount, converted by molar mass. Like-named read-outs stand apart in the source and are kept apart here.

Legend:
MRSA PK = target: T1, MRSA PK (Staphylococcus aureus, UniProt Q6GG09); experiment: MRSA PK activity, continuous LDH-coupled assay; type: biochemical, S. aureus (MRSA strain Sanger 252)
T1 construct: His tag (pET-28a(+) vector) (N); made in house; host or cells: E. coli BL-21 (DE3)
T1 sequence (Q6GG09 whole entry): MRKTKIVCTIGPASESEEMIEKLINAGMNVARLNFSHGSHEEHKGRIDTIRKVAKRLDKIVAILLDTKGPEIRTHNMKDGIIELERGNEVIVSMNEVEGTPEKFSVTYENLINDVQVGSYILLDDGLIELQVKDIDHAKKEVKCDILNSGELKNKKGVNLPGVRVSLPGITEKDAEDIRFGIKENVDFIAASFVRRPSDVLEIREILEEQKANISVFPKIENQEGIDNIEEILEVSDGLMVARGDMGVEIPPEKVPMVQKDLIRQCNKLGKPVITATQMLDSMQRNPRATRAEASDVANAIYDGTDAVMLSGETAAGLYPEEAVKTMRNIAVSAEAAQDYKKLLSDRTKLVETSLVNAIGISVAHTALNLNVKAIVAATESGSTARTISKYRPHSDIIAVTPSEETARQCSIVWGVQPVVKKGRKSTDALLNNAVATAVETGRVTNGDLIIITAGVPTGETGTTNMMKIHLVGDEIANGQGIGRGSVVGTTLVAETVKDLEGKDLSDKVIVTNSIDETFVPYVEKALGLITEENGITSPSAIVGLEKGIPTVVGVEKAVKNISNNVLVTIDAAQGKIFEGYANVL
How it was run: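 Activity was tracked as the 340 nm absorbance fall from NADH oxidation via coupled LDH, at 30 °C for ≤5 min. Reactions began on adding 15 nM recombinant His-tagged S. aureus PK, with inhibitor DMSO kept ≤1%. Four-parameter dose–response fitting gave IC50.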

S. aureus ATCC 29213 = experiment: In vitro susceptibility, broth microdilution MIC; type: cell-based, Staphylococcus aureus; conditions: Staphylococcus aureus, read-out: MIC
How it was run: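 The MIC against S. aureus 29213 was determined by CLSI 2-fold serial broth microdilution in Mueller Hinton broth. Plates were incubated for 18–24 h at 37 °C and read at OD600 with background subtracted. The MIC was the lowest concentration giving complete growth inhibition versus compound-free wells.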

[1] = ATCC29213, Table 8, tested at least in duplicate, differing values all given
[2] = Tables 1-6, 2 mM ADP, 10 mM PEP, 15 nM PK, read-out: IC50
[3] = ATCC29213, Tables 1-6 and text, minimum concentration to give >98% inhibition of growth
[4] = read-out: % inhibition at the highest concentration tested (IC50)

O=C(O)c1c(/C=C/c2ccc(Cl)nc2)[nH]c2cc(Br)ccc12 [Compound 152, (E)-6-Bromo-2-(2-(6-chloropyridin-3-yl)vinyl)-1H-indole-3-carboxylic acid]
IC50 (MRSA PK): > 1000 nM
MIC (S. aureus ATCC 29213; [1]): 64 µg/mL (≈ 169 µM)

O=C(Nc1nc2ccc(Br)cc2s1)c1cccc(Br)c1O [Compound 70, 3-Bromo-N-(6-bromobenzo[d]thiazol-2-yl)-2-hydroxybenzamide]
IC50 (MRSA PK; [2]): 42.9 nM
MIC (S. aureus ATCC 29213; [3]): 4 µg/mL (≈ 9.34 µM)

O=C(Nc1nc2ccc(Br)cc2s1)c1cc(Br)ccc1O [Compound 51, 5-Bromo-N-(6-bromobenzo[d]thiazol-2-yl)-2-hydroxybenzamide]
IC50 (MRSA PK; [2]): 3 nM
MIC (S. aureus ATCC 29213; [3]): > 64 µg/mL

O=C(Nc1nc2ccc(Br)cc2[nH]1)c1cc2cc(Br)ccc2[nH]1 [Compound 79, 5-bromo-N-(6-bromo-1H-benzo[d]imidazol-2-yl)-1H-indole-2-carboxamide]
IC50 (MRSA PK): 3.5 nM
MIC (S. aureus ATCC 29213; [3]): > 64 µg/mL

Brc1ccc2cc(/C=C/c3cn4ccccc4n3)[nH]c2c1 [Compound 110, (E)-2-(2-(6-Bromo-1H-indol-2-yl)vinyl)imidazo[1,2-a]pyridine]
IC50 (MRSA PK): < 50 nM
MIC (S. aureus ATCC 29213; [1]): > 64 µg/mL

Brc1ccc(-c2cccc(-c3cc4ccccc4[nH]3)c2)cc1 [Compound 59, 2-(4′-Bromo-[1,1′-biphenyl]-3-yl)-1H-indole]
inhibition at 10 µM (MRSA PK; [4]): 54%
MIC (S. aureus ATCC 29213; [3]): > 64 µg/mL

C(=C\c1cc2ccccc2[nH]1)/c1cc2ccccc2[nH]1 [Compound 44]
inhibition at 10 µM (MRSA PK; [4]): 63%
MIC (S. aureus ATCC 29213; [3]): > 64 µg/mL

O=C(O)c1c(-c2cc3cc(Cl)ccc3[nH]2)[nH]c2cc(Br)ccc12 [Compound 162, 6-bromo-5′-chloro-1H,1′H-[2,2′-biindole]-3-carboxylic acid]
IC50 (MRSA PK): < 50 nM
MIC (S. aureus ATCC 29213; [1]): 4 µg/mL (≈ 10.3 µM)

Brc1ccc2cc(C#Cc3cc4ccc(Br)cc4[nH]3)[nH]c2c1 [Compound 25b, 1,2-Bis(6-bromo-1H-indol-2-yl)ethyne]
IC50 (MRSA PK; [2]): 2.4 nM
MIC (S. aureus ATCC 29213; [3]): > 64 µg/mL

COC(=O)c1c(C(=O)Nc2ccc(OC)nc2)[nH]c2cc(Br)ccc12 [Compound 135, Methyl 6-bromo-2-((6-methoxypyridin-3-yl)carbamoyl)-1H-indole-3-carboxylate]
EC50 (MRSA PK): 31.7 nM
MIC (S. aureus ATCC 29213; [1]): > 64 µg/mL

Cc1ccc(/C=C/c2cc3ccc(Br)cc3[nH]2)cn1 [Compound 106, (E)-6-Bromo-2-(2-(6-methylpyridin-3-yl)vinyl)-1H-indole]
IC50 (MRSA PK): > 1000 nM
MIC (S. aureus ATCC 29213; [1]): > 64 µg/mL

Brc1ccc(-c2c[nH]c3cc(Br)ccc23)cc1 [Compound 57, 6-bromo-3-(4-bromophenyl)-1H-indole]
IC50 (MRSA PK; [2]): 102 nM
MIC (S. aureus ATCC 29213; [3]): 2 µg/mL (≈ 5.7 µM)

O=C(c1c(/C=C/c2ccc(Cl)cc2)[nH]c2cc(Br)c(F)cc12)C(F)(F)F [Compound 175, (E)-1-(6-Bromo-2-(4-chlorostyryl)-5-fluoro-1H-indol-3-yl)-2,2,2-trifluoroethanone]
IC50 (MRSA PK): 100 to 1000 nM
MIC (S. aureus ATCC 29213; [1]): 2 µg/mL (≈ 4.48 µM)

COC(=O)c1cc(Br)cc2[nH]c(-c3cc4c(C(=O)OC)cc(Br)cc4[nH]3)cc12 [Compound 163, Dimethyl 6,6′-dibromo-1H,1′H-[2,2′-biindole]-4,4′-dicarboxylate]
IC50 (MRSA PK): 50 to 100 nM
MIC (S. aureus ATCC 29213; [1]): > 64 µg/mL

O=C(Nc1nc2cc(Br)ccc2s1)c1cc(Br)ccc1O [Compound 50, 5-Bromo-N-(5-bromobenzo[d]thiazol-2-yl)-2-hydroxybenzamide]
inhibition at 10 µM (MRSA PK; [4]): 60%
MIC (S. aureus ATCC 29213; [3]): > 64 µg/mL

O=C(Nc1ccc(Br)cc1)c1[nH]c2cc(Br)ccc2c1C(=O)O [Compound 132, 6-Bromo-2-((4-bromophenyl)carbamoyl)-1H-indole-3-carboxylic acid]
IC50 (MRSA PK): < 50 nM
MIC (S. aureus ATCC 29213; [1]): 16 µg/mL (≈ 36.5 µM)

COC(=O)c1c(-c2cc3cc(Br)c(Br)cc3[nH]2)[nH]c2cc(Br)c(Br)cc12 [Compound 39d]
IC50 (MRSA PK): 2.1 nM
MIC (S. aureus ATCC 29213; [3]): 4 µg/mL (≈ 6.6 µM)

Brc1ccc(-c2cc3ccc(Br)cc3[nH]2)cc1 [Compound 55, 6-bromo-2-(4-bromophenyl)-1H-indole]
IC50 (MRSA PK): 56.9 nM
MIC (S. aureus ATCC 29213; [3]): > 64 µg/mL

O=C(Nc1ccc(Br)cc1)c1cc2ccc(Br)cc2[nH]1 [Compound 63, 6-Bromo-N-(4-bromophenyl)-1H-indole-2-carboxamide]
IC50 (MRSA PK): 9.7 nM
MIC (S. aureus ATCC 29213; [3]): > 64 µg/mL

Brc1ccc2cc(CNCc3ccccc3)[nH]c2c1 [Compound 146, N-Benzyl-1-(6-bromo-1H-indol-2-yl)methanamine]
IC50 (MRSA PK): > 1000 nM
MIC (S. aureus ATCC 29213; [1]): 32 µg/mL (≈ 102 µM)

Brc1ccc(-c2ccc(-c3cncc(-c4cc5ccccc5[nH]4)n3)cc2)cc1 [Compound 61, 2-(6-(4′-Bromo-[1,1′-biphenyl]-4-yl)pyrazin-2-yl)-1H-indole]
inhibition at 0.1 µM (MRSA PK; read-out: % inhibition (IC50)): 61%
MIC (S. aureus ATCC 29213; [3]): > 64 µg/mL

CC(=O)c1c(CCc2ccc(Cl)cc2)[nH]c2cc(Br)ccc12 [Compound 39b, 1-(6-bromo-2-(4-chlorophenethyl)-1H-indol-3-yl)ethanone]
IC50 (MRSA PK): 28 nM
MIC (S. aureus ATCC 29213; [3]): 4 µg/mL (≈ 10.6 µM)

CC(C)C(=O)c1c(CCc2ccc(Cl)cc2)[nH]c2cc(Br)ccc12 [Compound 39c, 1-(6-bromo-2-(4-chlorophenethyl)-1H-indol-3-yl)-2-methylpropan-1-one]
IC50 (MRSA PK): 28 nM
MIC (S. aureus ATCC 29213; [3]): 4 µg/mL (≈ 9.88 µM)

O=C(c1cc2ccc(Br)cc2[nH]1)c1cc(Br)ccc1O [Compound 87, (6-Bromo-1H-indol-2-yl)(5-bromo-2-hydroxyphenyl)methanone]
inhibition at 10 µM (MRSA PK; [4]): 58%
MIC (S. aureus ATCC 29213; [3]): > 64 µg/mL

Brc1ccc2cc(-c3ccc(-c4cc5ccc(Br)cc5[nH]4)s3)[nH]c2c1 [Compound 33b, 2,5-bis(6-bromo-1H-indol-2-yl)thiophene]
inhibition at 1 µM (MRSA PK; [4]): 28%
MIC (S. aureus ATCC 29213; [3]): > 64 µg/mL

CC(=O)c1c(CCc2ccccc2)[nH]c2cc(Br)ccc12 [Compound 39a, 1-(6-bromo-2-phenethyl-1H-indol-3-yl)ethanone]
IC50 (MRSA PK): 608 nM
MIC (S. aureus ATCC 29213; [3]): > 64 µg/mL

Brc1ccc2cc(CSc3nc4ccccc4[nH]3)[nH]c2c1 [Compound 148, 2-(((6-Bromo-1H-indol-2-yl)methyl)thio)-1H-benzo[d]imidazole]
IC50 (MRSA PK): > 1000 nM
MIC (S. aureus ATCC 29213; [1]): 32 µg/mL (≈ 89.3 µM)

COc1ccc(NC(=O)c2[nH]c3cc(Br)ccc3c2C(=O)O)cc1 [Compound 134, 6-Bromo-2-((4-methoxyphenyl)carbamoyl)-1H-indole-3-carboxylic acid]
IC50 (MRSA PK): < 50 nM
MIC (S. aureus ATCC 29213; [1]): 64 µg/mL (≈ 164 µM)

Brc1ccc(-c2cncc(-c3cc4ccccc4[nH]3)n2)cc1 [Compound 60, 2-(6-(4-Bromophenyl)pyrazin-2-yl)-1H-indole]
inhibition at 10 µM (MRSA PK; [4]): 79%
MIC (S. aureus ATCC 29213; [3]): > 64 µg/mL

Clc1cnc(C#Cc2cc3ccc(Br)cc3[nH]2)nc1 [Compound 142, 6-Bromo-2-((5-chloropyrimidin-2-yl)ethynyl)-1H-indole]
IC50 (MRSA PK): 50 to 100 nM
MIC (S. aureus ATCC 29213; [1]): > 64 µg/mL

Fc1cc2cc(/C=C/c3ccc(Cl)cc3)[nH]c2cc1Br [Compound 161, (E)-6-Bromo-2-(4-chlorostyryl)-5-fluoro-1H-indole]
IC50 (MRSA PK): < 50 nM
MIC (S. aureus ATCC 29213; [1]): > 64 µg/mL

Brc1cncc(/C=C/c2cc3ccc(Br)cc3[nH]2)c1 [Compound 100, (E)-6-Bromo-2-(2-(5-bromopyridin-3-yl)vinyl)-1H-indole]
IC50 (MRSA PK): > 1000 nM
MIC (S. aureus ATCC 29213; [1]): > 64 µg/mL

O=C(c1c(CCc2cc(Cl)cc(Cl)c2)[nH]c2cc(Br)ccc12)C(F)(F)F [Compound 171, 1-(6-Bromo-2-(3,5-dichlorophenethyl)-1H-indol-3-yl)-2,2,2-trifluoroethanone]
IC50 (MRSA PK): > 1000 nM
MIC (S. aureus ATCC 29213; [1]): 1 µg/mL (≈ 2.15 µM)

O=C(Nc1nc2ccccc2s1)c1cc(Br)ccc1O [Compound 56]
inhibition at 10 µM (MRSA PK; [4]): 76%
MIC (S. aureus ATCC 29213; [3]): > 64 µg/mL

CC(=O)c1c(/C=C/c2ccccc2)[nH]c2cc(Br)ccc12 [Compound 38a, (E)-1-(6-bromo-2-styryl-1H-indol-3-yl)ethanone]
IC50 (MRSA PK): > 20000 nM
MIC (S. aureus ATCC 29213; [3]): > 64 µg/mL

COc1c(Br)cccc1C(=O)Nc1nc2ccc(Br)cc2s1 [Compound 84, 3-Bromo-N-(6-bromobenzo[d]thiazol-2-yl)-2-methoxybenzamide]
inhibition at 10 µM (MRSA PK; [4]): 84%
MIC (S. aureus ATCC 29213; [3]): > 64 µg/mL

Fc1ccc(/C=C/c2cc3ccc(Br)cc3[nH]2)cc1 [Compound 103, (E)-6-Bromo-2-(4-fluorostyryl)-1H-indole]
IC50 (MRSA PK): > 1000 nM
MIC (S. aureus ATCC 29213; [1]): > 64 µg/mL

O=C(Nc1nc2ccc(Br)cc2s1)c1cc(Br)cc(Br)c1O [Compound 85, 3,5-dibromo-N-(6-bromobenzo[d]thiazol-2-3/1)-2-hydroxybenzamide]
IC50 (MRSA PK): 4.1 nM
MIC (S. aureus ATCC 29213; [3]): 1 µg/mL (≈ 1.97 µM)

COC(=O)c1c(C(=O)Nc2ccc(Br)cc2)[nH]c2cc(Br)ccc12 [Compound 131, Methyl 6-bromo-2-((4-bromophenyl)carbamoyl)-1H-indole-3-carboxylate]
EC50 (MRSA PK): 15 nM
MIC (S. aureus ATCC 29213; [1]): > 64 µg/mL

O=C(c1c(CCc2ccc(Cl)nc2)[nH]c2cc(Br)ccc12)C(F)(F)F [Compound 173, 1-(6-Bromo-2-(2-(6-chloropyridin-3-yl)ethyl)-1H-indol-3-yl)-2,2,2-trifluoroethanone]
IC50 (MRSA PK): > 1000 nM
MIC (S. aureus ATCC 29213; [1]): > 64 µg/mL

Oc1ccc(Br)cc1-c1ccnc(-c2cc3ccc(Br)cc3[nH]2)c1 [Compound 86, 4-bromo-2-(2-(6-bromo-1H-indol-2-yl)pyridin-4-yl)phenol]
inhibition at 10 µM (MRSA PK; [4]): 62%
MIC (S. aureus ATCC 29213; [3]): > 64 µg/mL

O=C(Nc1nc2ccc(Br)cc2[nH]1)c1cc2ccc(Br)cc2[nH]1 [Compound 80, 6-Bromo-N-(6-bromo-1H-benzo[d]imidazol-2-yl)-1H-indole-2-carboxamide]
IC50 (MRSA PK): 1.5 nM
MIC (S. aureus ATCC 29213; [3]): > 64 µg/mL

O=C(Nc1nc2ccc(Br)cc2s1)c1cc2ccccc2[nH]1 [Compound 54, N-(6-Bromobenzo[d]thiazol-2-yl)-1H-indole-2-carboxamide]
IC50 (MRSA PK; [2]): 11.1 nM
MIC (S. aureus ATCC 29213; [3]): > 64 µg/mL
